Test results as given in patent US5049673A, “Fluorescent indicator dyes for calcium working at long wavelengths” (The Regents of the University of California, priority 1987, dated 1991).
Where two headings read alike, the source gives them in different places.

Experiments:
[1] = cited from earlier work
[2] = parent compounds, literature; read-out: Ca^2+ dissociation constant of parent compounds; cited from earlier work
[3] = for Kd: read-out: Effective dissociation constant Kd for Ca^2+, pH 7.0-7.5, ionic strengths 0.1-0.15
Description: For measurement of Ca^2+ dissociation constants at pH 7.0-7.5, free [Ca^2+ ] levels were controlled by Ca^2+ /EGTA, Ca^2+ /HEEDTA and Ca^2+ /NTA buffers (see ref. 12) The apparent dissociation constant for the Ca^2+ EGTA complex was taken as 327 nM at pH 7.03 in 100 mM KCl, 20° C. The logarithms of the apparent dissociation constants for the Ca^2+ HEEDTA and Ca^2+ NTA complexes were calculated to be 1.70 - pH and 3.41 - pH, respectively, at room temperature in 0.1 M KCl. To test the pH dependence of the apparent Ca^2+ -dissociation constant of fluo-3 (see FIG. 4), it was necessary to vary pH from 5.6 to 8 while maintaining constant free Ca^2+. EGTA, HEEDTA, and NTA are too pH-dependent to cover this pH range, so dibromo-BAPTA (chelator 2c of ref 13) was used instead. […] To compensate for that small dependence, the pH titration was started from pH 5.6 with the appropriate amount of Ca^2+ in the buffer. Then, at each higher pH, the appropriate small addition of CaCl2 was made to compensate for the increase in the effective Ca^2+ affinity of the dibromo-BAPTA.

[4] = Absorbance and fluorescence properties in the presence and absence of Ca2+; assay type: physicochemical
Description: FIG. 4. Excitation (A) and emission (B) spectra for fluo-3 at 22°±2° C. in buffers with free Ca^2+ values ranging from <1 nM to 58 microM. The titration was done starting with 3.5 ml of 100 mM KCl, 10 mM K-MOPS, 10 mM K2 H2 EGTA, 15 microM fluo-3, pH 7.03. The "O" Ca spectrum was recorded, then to reach n mM CaEGTA, (10-n) mM EGTA, n=1-10, aliquots of 3.5/(11-n) ml were iteratively discarded and replaced by equal volumes of 100 mM KCl, 10 mM K-MOPS, 10 mM K2 CaEGTA, 15 microM fluo-3, pH 7.0. After each iteration the pH (range 6.99 to 7.05) and spectra were recorded; each spectrum is labeled by the calculated free Ca^2+ in micromolar. The excitation and emission bandwidths were 1.9 nm and 4.6 nm respectively. All spectra have been normalized with respect to the peak of the 58 microM (n=10) curve. In A, emission was collected at 530 nm, and the excitation was corrected for lamp and monochromator characteristics using a rhodamine B quantum counter. In B, excitation was at 490 nm, and the emission spectrum is uncorrected for monochromator and detector sensitivity. The slightly low amplitude of the curve at 3.6 microM [Ca^2+ ] is probably due to a small error in resetting the excitation monochromator to 490 nm.
(§1) FIG. 6. The product of fluorescence quantum efficiency and extinction coefficient vs. free [Ca^2+ ] (note log axes for both) for quin-2, fura-2, indo-1, rhod-2, and fluo-3. All data are for room temperature, 0.1 M KCl, no added Mg^2+. […] The curve for fluo-3 used the data of Table I with extinction coefficients of 7.5×10^4 to 8.35×10^4 at 506 nm; the curve for rhod-2 assumed a Ca^2+ -independent extinction coefficient of 1×10^5 M^-1 cm^-1.
Examples of the synthetic routes than can be used to produce the new dyes of the present invention are outlined in FIGS. 2 and 3. Full descriptions of the reaction conditions are described below under the section entitled Compound Synthesis. Optical spectra were measured as described by Grynkiewicz, et al. (1985). (See ref. 9.) Quantum efficiencies of fluorescence were obtained (see ref. 10) by comparing the integral of the corrected emission spectrum of the test sample with that of a solution of rhodamine B in ethanol, quantum efficiency assumed to be 0.97 (see ref. 11), or fluorescein in 0.1 M NaOH, quantum efficiency 0.91 (see ref. 10). The concentration of the reference dye was adjusted to match the absorbance of the test sample at the wavelength of excitation.
The absorbance and fluorescence properties for the new indicators in the presence and absence of Ca^2+ are shown in Table I. The absorbance spectra were much as one would expect for rhodamine or fluorescein chromophores, though extinction coefficients (not shown) were often low in the dyes as initially isolated. Because fluo-3 appeared to be a very useful indicator compound, extra effort was expended in its purification. Eventually, quite respectable extinction coefficients were obtained, 7.9×10^4 and 8.3×10^4 M^-1 cm^-1 at 503 and 506 nm, respectively for free and Ca^2+ -bound fluo-3. Ca^2+ binding was expected to shift the absorbance maxima to longer wavelengths,since it would prevent the BAPTA amino nitrogen from donating electron density to the 9-position of the xanthene. Electron-withdrawal and donation to the central carbon of triphenylmethane dyes are known to shift absorbance peaks to longer and shorter wavelengths, respectively (see ref. 19). Indeed, Ca^2+ binding caused red shifts, but of very small magnitude, 1-3 nm, and with little change in peak height.
Fluo-3 has a visibly pinkish tinge because its chlorine atoms shift its spectra to wavelengths slightly longer than those of fluo-2, just as 2,7-dichlorofluorescein is bathochromically shifted from fluorescein. […] Thus the Ca^2+ complex of fluo-3 fluoresced 35- to 40-fold more brightly than the Ca^2+ -free dye (see FIG. 4). This degree of enhancement is the greatest yet reported for a fluorescent Ca^2+ indicator. […]

[5] = Mg2+ dissociation constant in Mg2+/EGTA buffers
Description: Free [Mg2+] was controlled by Mg^2+ /EGTA buffers assuming an apparent dissociation constant for the Mg^2+ /EGTA complex (including its monoprotonated form) of 6 mM at pH 7.60, 0.12 M ionic strength, 20°, as calculated from the data of Martell & Smith (see ref. 12).

[6] = Product of fluorescence quantum efficiency and extinction coefficient vs free [Ca2+] (FIG. 6); assay type: physicochemical
Description: as §1
Whereas fura-2 and indo-1 were clearly much more intensely fluorescent than quin-2, enabling measurements with much less added dye and Ca^2+ buffering, comparison of the brightness of the new dyes with that of fura-2 and indo-1 is more complex of the different operating wavelengths. The simplest measure of the intrinsic brightness of a fluorophore is the product of its emission quantum efficiency and its extinction coefficient at the appropriate excitation wavelength (see FIG. 6). At the present time, extinction coefficients are known only for fluo-3, though one may estimate the values for the other indicators from purified model xanthene dyes (9-10×10^4 M^-1 cm^31 1). For fluo-3, the quantum efficiency×extinction coefficient ranges from 3×10^3 to 1.5×10^4 M^-1 cm^-1 for Ca^2+ values from 10^-7 M up to saturation, slightly less than the corresponding values for fura-2 excited at 340 nm, 5×10^3 to 1.6× 10^4 M^-1 cm^-1 (see FIG. 6). However, it is easier to generate higher excitation intensities at longer wavelengths, and autofluorescence will be lower, so the actual concentrations of dye needed to overcome dark current and autofluorescence may be fairly similar for the two families. On the other hand, the relatively small separation between excitation and emission peaks of the new dyes makes more stringent demands on monochromators and filters to exclude scattered light.
The Ca^2+ affinities of the new dyes are two to ten-fold weaker than those of their UV-excited predecessors. […]

[7] = Photochemical stability, xenon arc illumination of air-saturated solutions; assay type: physicochemical
Description: Fluo-3 was briefly checked for photochemical stability. […] Since the biological usability of fluorescein is well established, the photochemical resistance of fluo-3 would seem to be adequate if not outstanding.

[8] = cited from earlier work; for Kd: room temperature, 0.1 M KCl, no added Mg^2+, read-out: Ca^2+ dissociation constant (Kd) used for FIG. 6

O=c1ccc2c(-c3ccccc3)c3ccc(O)cc3oc-2c1 [9-phenylfluorone]
Quantum efficiency of model compound [1]: 0.21

O=C(O)CN(CC(=O)O)c1ccccc1OCCOc1ccccc1N(CC(=O)O)CC(=O)O [BAPTA, 1,2-bis(2-amino-phenoxy)ethane N,N,N',N'-tetraacetic acid]
Kd [2]: 110 nM

Cc1ccc(N(CC(=O)O)CC(=O)O)c(OCCOc2cc(-c3c4ccc(=O)cc-4oc4cc(O)ccc34)c(O)cc2N(CC(=O)O)CC(=O)O)c1 [fluo-1, 9-(6-hydroxy-4-bis(carboxymethyl)amino-3-(2-(2-bis(carboxymethyl)amino-5-methylphenoxy)ethoxy)phenyl)-6-hydroxy-3H-xanthen-3-one]
pH dependence of fluorescence: some pH dependence
Kd [3]: 700 nM
Lowering of Ca^2+ affinity by hydroxy group vs unsubstituted rhod-2 and fluo-2 ([3]; vs rhod-2 and fluo-2): more than two-fold
Fluorescence maxima, emission, with excess Ca [4]: 521 nm
Fluorescence maxima, excitation, with excess Ca [4]: 499 nm
Fluorescence quantum efficiency, excess Ca [4]: .014
Fluorescence ratio, excess vs. zero Ca [4]: 3.3
Fluorescence quantum efficiency, zero Ca [4]: .0042

Cc1ccc(N(CC(=O)O)CC(=O)O)c(OCCOc2cc(-c3c4ccc(=O)cc-4oc4cc(O)ccc34)ccc2N(CC(=O)O)CC(=O)O)c1 [fluo-2, 9-(4-bis(carboxymethyl)amino-3-(2-(2-bis(carboxymethyl)amino-5-methylphenoxy)ethoxy)phenyl)-6-hydroxy-3H-xanthen-3-one]
Fluorescence quenching on titration from pH 7.7 to 4.1 (absence of Ca^2+): almost completely quenched
Ratio between the brightness of the deprotonated and the protonated species (absence of Ca^2+): 67
Kd [3]: 370 nM
Fluorescence maxima, emission, with excess Ca [4]: 518 nm
Fluorescence maxima, excitation, with excess Ca [4]: 493 nm
Fluorescence quantum efficiency, excess Ca [4]: .125
Fluorescence ratio, excess vs. zero Ca [4]: 31
Fluorescence quantum efficiency, zero Ca [4]: .004

Cc1ccc(N(CC(=O)O)CC(=O)O)c(OCCOc2cc(-c3c4cc(Cl)c(=O)cc-4oc4cc(O)c(Cl)cc34)ccc2N(CC(=O)O)CC(=O)O)c1 [fluo-3, 9-(4-bis(carboxymethyl)amino-3-(2-(2-bis(carboxymethyl)amino-5-methylphenoxy)ethoxy)phenyl)-2,7-dichloro-6-hydroxy-3 H-xanthen-3-one]
Effect of Mg^2+ binding on chelator fluorescence [5]: relatively little effect
Fluorescence enhancement by Mg^2+ binding ([5]; Mg^2+ binding): about 1.4 fold
Kd ([5]; read-out: Mg^2+ dissociation constant, 25°, 0.1-0.15 M ionic strength): 9 mM
Amino pKa, independent rough confirmation from intermediate [Ca^2+] curves (100 mm kcl, tris-mops): about 6.2
pKa of amino nitrogen (100 mm kcl, tris-mops): about 6.2
pKa of chromophore (absorbance spectrum or fluorescence amplitude of Ca^2+-complex) (100 mm kcl, tris-mops): 4.5-4.6
Increase of fluorescence of Ca^2+-free dye, pH 8 to pH 5 (Ca^2+-free, maximal): ≤ 3 fold
Effectiveness of intermediate Ca^2+ at enhancing fluorescence at pH 6.1-6.2 vs pH ~8 (pH about 6.1-6.2 vs pH ~8): about half as effective
Effect of added chlorines on Ca^2+ affinity [3]: very little effect
Kd [3]: 450 nM
Extinction coefficient, free dye ([4]; 503 nm, free): 79000 M⁻¹ cm⁻¹
Extinction coefficient, Ca^2+-bound dye ([4]; 506 nm, Ca^2+-bound): 83000 M⁻¹ cm⁻¹
Fluorescence enhancement, Ca^2+ complex vs Ca^2+-free dye ([4]; Ca^2+ complex vs free dye): 40 fold
Fluorescence maxima, emission, with excess Ca [4]: 526 nm
Fluorescence maxima, excitation, with excess Ca [4]: 506 nm
Fluorescence quantum efficiency, excess Ca [4]: .183
Fluorescence ratio, excess vs. zero Ca [4]: 36-40
Fluorescence quantum efficiency, zero Ca [4]: .0051
[Ca^2+] giving double the fluorescence at zero [Ca^2+] [6]: 11 nM
Conversion to Ca^2+ complex at 11 nM [Ca^2+] ([6]; 11 nM [Ca^2+]): 2.5%
Brightness of Ca^2+ complex relative to free dye (in words) ([6]; Ca^2+ complex vs free dye): forty-fold brighter
Photobleaching rate, Ca^2+ complex ([7]; Ca^2+ complex): bleached about half as quickly
Photobleaching rate, Ca^2+-free ([7]; Ca^2+-free): bleached at about the same rate as ordinary fluorescein anion

O=C1OC2(c3ccc(O)cc3Oc3cc(O)ccc32)c2ccccc21 [fluorescein]
Quantum efficiency of reference dye in 0.1 M NaOH ([1]; 0.1 M NaOH): 0.91

Cc1ccc(N(CC(=O)O)CC(=O)O)c(OCCOc2cc(-c3cc4ccc(C(=O)O)cc4[nH]3)ccc2N(CC(=O)O)CC(=O)O)c1 [indo-1]
Kd [8]: 250 nM

COc1cc(N(CC(=O)O)CC(=O)O)c2nc(COc3cc(C)ccc3N(CC(=O)O)CC(=O)O)ccc2c1 [quin-2, 2-[[2-[bis(carboxymethyl)amino]-5-methylphenoxy]-6-methoxy-8-bis(carboxymethyl)amino]quinolline]
Extinction coefficient at 339 nm ([8]; 339 nm, independent of Ca^2+): 4600 M⁻¹ cm⁻¹
Kd [8]: 78 nM

Cc1ccc(N(CC(=O)O)CC(=O)O)c(OCCOc2cc(-c3c4ccc(=[N+](C)C)cc-4oc4cc(N(C)C)ccc34)ccc2N(CC(=O)O)CC(=O)O)c1 [rhod-2]
Kd [3]: 1000 nM
Fluorescence maxima, emission, with excess Ca [4]: 576 nm
Fluorescence maxima, excitation, with excess Ca [4]: 553 nm
Fluorescence quantum efficiency, excess Ca [4]: .102
Fluorescence ratio, excess vs. zero Ca [4]: 3.4
Fluorescence quantum efficiency, zero Ca [4]: .03

CCN(CC)c1ccc2c(-c3ccccc3C(=O)O)c3ccc(=[N+](CC)CC)cc-3oc2c1 [rhodamine B]
Quantum efficiency of reference dye in ethanol ([1]; in ethanol): 0.97
